Results from patent US20230002367A1, “BIFUNCTIONAL COMPOUNDS” (Hoffmann-La Roche Inc., priority 2019, published 2023).

Molecular target: T1, SMARCA2 (Homo sapiens, UniProt P51531)
T1 construct: endogenous in cells
Experiment: SMARCA2 HiBiT degradation assay (cellular)
Type: cell-based
Details: for Emax: A549, Emax = amount of residual protein remaining in the cell following compound treatment; for DC50: SMARCA2 HiBiT cells, luminescence readout, 11-point titration from 10 μM, 6 hours or 16 hours, read-out: HiBit A549 SMARCA2 IP

T1 sequence (P51531 whole entry): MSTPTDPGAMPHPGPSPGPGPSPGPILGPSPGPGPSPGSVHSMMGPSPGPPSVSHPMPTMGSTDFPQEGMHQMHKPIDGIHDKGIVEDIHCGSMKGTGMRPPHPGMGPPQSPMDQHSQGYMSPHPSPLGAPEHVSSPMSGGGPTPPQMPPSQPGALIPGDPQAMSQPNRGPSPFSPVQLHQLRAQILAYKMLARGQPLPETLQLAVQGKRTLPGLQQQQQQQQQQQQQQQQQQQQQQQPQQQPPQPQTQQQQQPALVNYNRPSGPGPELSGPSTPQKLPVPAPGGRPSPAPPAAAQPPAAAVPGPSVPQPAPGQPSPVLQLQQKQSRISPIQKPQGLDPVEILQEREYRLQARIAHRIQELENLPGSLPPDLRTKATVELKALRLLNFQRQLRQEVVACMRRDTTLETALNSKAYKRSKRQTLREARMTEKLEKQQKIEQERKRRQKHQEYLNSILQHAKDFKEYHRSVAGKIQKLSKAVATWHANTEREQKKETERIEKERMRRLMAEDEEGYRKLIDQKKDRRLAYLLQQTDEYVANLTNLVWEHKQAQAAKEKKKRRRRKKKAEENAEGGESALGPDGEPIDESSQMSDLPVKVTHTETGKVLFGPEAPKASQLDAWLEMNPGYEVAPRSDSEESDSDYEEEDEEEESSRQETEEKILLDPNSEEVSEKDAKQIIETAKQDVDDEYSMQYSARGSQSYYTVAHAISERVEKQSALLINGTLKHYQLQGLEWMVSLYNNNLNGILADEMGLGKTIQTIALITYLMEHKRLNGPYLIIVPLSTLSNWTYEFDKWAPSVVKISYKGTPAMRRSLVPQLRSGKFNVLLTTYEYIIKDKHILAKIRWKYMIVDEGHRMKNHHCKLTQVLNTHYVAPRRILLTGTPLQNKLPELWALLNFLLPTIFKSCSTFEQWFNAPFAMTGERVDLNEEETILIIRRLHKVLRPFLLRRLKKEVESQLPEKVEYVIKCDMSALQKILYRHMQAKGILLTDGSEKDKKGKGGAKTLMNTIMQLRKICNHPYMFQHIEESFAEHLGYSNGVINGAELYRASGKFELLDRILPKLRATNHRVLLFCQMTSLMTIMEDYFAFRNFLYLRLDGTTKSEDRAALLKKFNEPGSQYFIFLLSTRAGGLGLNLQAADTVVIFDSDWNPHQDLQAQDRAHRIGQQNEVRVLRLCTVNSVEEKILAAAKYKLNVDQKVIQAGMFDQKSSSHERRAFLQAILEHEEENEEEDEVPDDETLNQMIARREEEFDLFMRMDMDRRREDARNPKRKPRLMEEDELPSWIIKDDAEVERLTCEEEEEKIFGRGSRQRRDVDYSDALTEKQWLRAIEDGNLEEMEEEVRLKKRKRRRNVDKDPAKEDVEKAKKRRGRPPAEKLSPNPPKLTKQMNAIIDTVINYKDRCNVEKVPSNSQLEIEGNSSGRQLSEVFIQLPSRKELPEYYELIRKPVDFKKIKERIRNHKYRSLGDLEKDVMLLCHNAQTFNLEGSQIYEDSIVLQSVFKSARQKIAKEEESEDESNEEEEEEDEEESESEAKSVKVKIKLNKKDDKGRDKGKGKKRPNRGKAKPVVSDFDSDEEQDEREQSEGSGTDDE

Row | Structure (SMILES) | Emax [%] | DC50 [nM]
1 | Cc1ncsc1-c1ccc(CNC(=O)[C@@H]2C[C@@H](O)CN2C(=O)[C@H](NC(=O)CCCCCCC(=O)N2CCN(CCOc3cccc(N4C5CCC4CN(c4cc(-c6ccccc6O)nnc4N)C5)c3)CC2)C(C)(C)C)cc1 [Example 8, (2S,4R)-1-[(2R)-2-[[8-[4-[2-[3-[3-[3-amino-6-(2-hydroxyphenyl)pyridazin-4-yl]-3,8-diazabicyclo[3.2.1]octan-8-yl]phenoxy]ethyl]piperazin-1-yl]-8-oxo-octanoyl]amino]-3,3-dimethyl-butanoyl]-4-hydroxy-N-[[4-(4-methylthiazol-5-yl)phenyl]methyl]pyrrolidine-2-carboxamide] | 48 | 610
2 | Cc1ncsc1-c1ccc(CNC(=O)[C@@H]2C[C@@H](O)CN2C(=O)[C@H](NC(=O)CCCCCC(=O)N2CCN(CCOc3cccc(N4C5CCC4CN(c4cc(-c6ccccc6O)nnc4N)C5)c3)CC2)C(C)(C)C)cc1 [Example 9, (2S,4R)-1-[(2R)-2-[[7-[4-[2-[3-[3-[3-amino-6-(2-hydroxyphenyl)pyridazin-4-yl]-3,8-diazabicyclo[3.2.1]octan-8-yl]phenoxy]ethyl]piperazin-1-yl]-7-oxo-heptanoyl]amino]-3,3-dimethyl-butanoyl]-4-hydroxy-N-[[4-(4-methylthiazol-5-yl)phenyl]methyl]pyrrolidine-2-carboxamide] | 58 | 733
3 | Cc1ncsc1-c1ccc(CNC(=O)[C@@H]2C[C@@H](O)CN2C(=O)[C@@H](NC(=O)CCCCCCCCC(=O)N2CCN(CCOc3cccc(N4C5CCC4CN(c4cc(-c6ccccc6O)nnc4N)C5)c3)CC2)C(C)(C)C)cc1 [Example 10, (2S,4R)-1-[(2S)-2-[[10-[4-[2-[3-[3-[3-amino-6-(2-hydroxyphenyl)pyridazin-4-yl]-3,8-diazabicyclo[3.2.1]octan-8-yl]phenoxy]ethyl]piperazin-1-yl]-10-oxo-decanoyl]amino]-3,3-dimethyl-butanoyl]-4-hydroxy-N-[[4-(4-methylthiazol-5-yl)phenyl]methyl]pyrrolidine-2-carboxamide] | 19 | 286
4 | Cc1ncsc1-c1ccc(CNC(=O)[C@@H]2C[C@@H](O)CN2C(=O)[C@@H](NC(=O)CCCCCCCCCC(=O)N2CCN(CCOc3cccc(N4C5CCC4CN(c4cc(-c6ccccc6O)nnc4N)C5)c3)CC2)C(C)(C)C)cc1 [Example 11, (2S,4R)-1-[(2S)-2-[[11-[4-[2-[3-[3-[3-amino-6-(2-hydroxyphenyl)pyridazin-4-yl]-3,8-diazabicyclo[3.2.1]octan-8-yl]phenoxy]ethyl]piperazin-1-yl]-11-oxo-undecanoyl]amino]-3,3-dimethyl-butanoyl]-4-hydroxy-N-[[4-(4-methylthiazol-5-yl)phenyl]methyl]pyrrolidine-2-carboxamide] | 20 | 104
5 | Cc1ncsc1-c1ccc(CNC(=O)[C@@H]2C[C@@H](O)CN2C(=O)[C@@H](NC(=O)CCCCCCCCC(=O)N2CCOC3(CCN(c4cc(-c5ccccc5O)nnc4N)CC3)C2)C(C)(C)C)cc1 [Example 12, (2S,4R)-1-[(2S)-2-[[10-[9-[3-amino-6-(2-hydroxyphenyl)pyridazin-4-yl]-1-oxa-4,9-diazaspiro[5.5]undecan-4-yl]-10-oxo-decanoyl]amino]-3,3-dimethyl-butanoyl]-4-hydroxy-N-[[4-(4-methylthiazol-5-yl)phenyl]methyl]pyrrolidine-2-carboxamide] | 43 | 2460
6 | Cc1ncsc1-c1ccc(CNC(=O)[C@@H]2C[C@H](O)CN2C(=O)[C@@H](NC(=O)CCCCCCCC(=O)N2CCC(Cc3cccc(N4C5CCC4CN(c4cc(-c6ccccc6O)nnc4N)C5)c3)CC2)C(C)(C)C)cc1 [Example 13, (2S,4S)-1-[(2S)-2-[[9-[4-[[3-[3-[3-amino-6-(2-hydroxyphenyl)pyridazin-4-yl]-3,8-diazabicyclo[3.2.1]octan-8-yl]phenyl]methyl]-1-piperidyl]-9-oxo-nonanoyl]amino]-3,3-dimethyl-butanoyl]-4-hydroxy-N-[[4-(4-methylthiazol-5-yl)phenyl]methyl]pyrrolidine-2-carboxamide] | 28 | 954
7 | Cc1ncsc1-c1ccc(CNC(=O)[C@@H]2C[C@H](O)CN2C(=O)[C@@H](NC(=O)CCCCCC(=O)N2CCC(Cc3cccc(N4C5CCC4CN(c4cc(-c6ccccc6O)nnc4N)C5)c3)CC2)C(C)(C)C)cc1 [Example 14, (2S,4S)-1-[(2S)-2-[[7-[4-[[3-[3-[3-amino-6-(2-hydroxyphenyl)pyridazin-4-yl]-3,8-diazabicyclo[3.2.1]octan-8-yl]phenyl]methyl]-1-piperidyl]-7-oxo-heptanoyl]amino]-3,3-dimethyl-butanoyl]-4-hydroxy-N-[[4-(4-methylthiazol-5-yl)phenyl]methyl]pyrrolidine-2-carboxamide] | 38 | 995
8 | Cc1ncsc1-c1ccc(CNC(=O)[C@@H]2C[C@H](O)CN2C(=O)[C@@H](NC(=O)CCCCCCCCCC(=O)N2CCC(Cc3cccc(N4C5CCC4CN(c4cc(-c6ccccc6O)nnc4N)C5)c3)CC2)C(C)(C)C)cc1 [Example 15, (2S,4S)-1-[(2S)-2-[[11-[4-[[3-[3-[3-amino-6-(2-hydroxyphenyl)pyridazin-4-yl]-3,8-diazabicyclo[3.2.1]octan-8-yl]phenyl]methyl]-1-piperidyl]-11-oxo-undecanoyl]amino]-3,3-dimethyl-butanoyl]-4-hydroxy-N-[[4-(4-methylthiazol-5-yl)phenyl]methyl]pyrrolidine-2-carboxamide] | 24 | 487
9 | Cc1ncsc1-c1ccc(CNC(=O)[C@@H]2C[C@@H](O)CN2C(=O)[C@@H](NC(=O)CCCCCCCCC(=O)N2CCN(c3cc(-c4ccccc4O)nnc3N)CC23CC3)C(C)(C)C)cc1 [Example 16, (2S,4R)-1-[(2S)-2-[[10-[7-[3-amino-6-(2-hydroxyphenyl)pyridazin-4-yl]-4,7-diazaspiro[2.5]octan-4-yl]-10-oxo-decanoyl]amino]-3,3-dimethyl-butanoyl]-4-hydroxy-N-[[4-(4-methylthiazol-5-yl)phenyl]methyl]pyrrolidine-2-carboxamide] | 33 | 872
10 | Cc1ncsc1-c1ccc(CNC(=O)[C@@H]2C[C@@H](O)CN2C(=O)[C@@H](NC(=O)CCCCCCCCC(=O)N2CC=C(c3cc(-c4ccccc4O)nnc3N)CC2)C(C)(C)C)cc1 [Example 17, (2S,4R)-1-[(2S)-2-[[10-[4-[3-amino-6-(2-hydroxyphenyl)pyridazin-4-yl]-3,6-dihydro-2H-pyridin-1-yl]-10-oxo-decanoyl]amino]-3,3-dimethyl-butanoyl]-4-hydroxy-N-[[4-(4-methylthiazol-5-yl)phenyl]methyl]pyrrolidine-2-carboxamide] | 50 | 2820
11 | Cc1ncsc1-c1ccc(CNC(=O)[C@@H]2C[C@@H](O)CN2C(=O)[C@@H](NC(=O)CCCCCCCCCC(=O)N2CCN(C(=O)c3cccc(CN4C5CCC4CN(c4cc(-c6ccccc6O)nnc4N)C5)c3)CC2)C(C)(C)C)cc1 [Example 18, (2S,4R)-1-[(2S)-2-[[11-[4-[3-[[3-[3-amino-6-(2-hydroxyphenyl)pyridazin-4-yl]-3,8-diazabicyclo[3.2.1]octan-8-yl]methyl]benzoyl]piperazin-1-yl]-11-oxo-undecanoyl]amino]-3,3-dimethyl-butanoyl]-4-hydroxy-N-[[4-(4-methylthiazol-5-yl)phenyl]methyl]pyrrolidine-2-carboxamide] | 63 | 848
12 | Cc1ncsc1-c1ccc(CNC(=O)[C@@H]2C[C@@H](O)CN2C(=O)[C@@H](NC(=O)CCCCCCCCC(=O)N2C3CCCC2CN(c2cc(-c4ccccc4O)nnc2N)C3)C(C)(C)C)cc1 [Example 19, (2S,4R)-1-[(2S)-2-[[10-[3-[3-Amino-6-(2-hydroxyphenyl)pyridazin-4-yl]-3,9-diazabicyclo[3.3.1]nonan-9-yl]-10-oxo-decanoyl]amino]-3,3-dimethyl-butanoyl]-4-hydroxy-N-[[4-(4-methylthiazol-5-yl)phenyl]methyl]pyrrolidine-2-carboxamide] | 18 | 754
13 | Cc1ncsc1-c1ccc(CNC(=O)[C@@H]2C[C@@H](O)CN2C(=O)[C@H](NC(=O)CCCCCCCCCOc2cccc(N3C4CCC3CN(c3cc(-c5ccccc5O)nnc3N)C4)c2)C(C)(C)C)cc1 [Example 20, (2S,4R)-1-[(2R)-2-[10-[3-[3-[3-amino-6-(2-hydroxyphenyl)pyridazin-4-yl]-3,8-diazabicyclo[3.2.1]octan-8-yl]phenoxy]decanoylamino]-3,3-dimethyl-butanoyl]-4-hydroxy-N-[[4-(4-methylthiazol-5-yl)phenyl]methyl]pyrrolidine-2-carboxamide] | 33 | 313
14 | Cc1ncsc1-c1ccc(CNC(=O)[C@@H]2C[C@@H](O)CN2C(=O)[C@@H](NC(=O)CCCCCCCCC(=O)N2CCN(Cc3cccc(CN4C5CCC4CN(c4cc(-c6ccccc6O)nnc4N)C5)c3)CC2)C(C)(C)C)cc1 [Example 29, (2S,4R)-1-[(2S)-2-[[10-[4-[[3-[[3-[3-amino-6-(2-hydroxyphenyl)pyridazin-4-yl]-3,8-diazabicyclo[3.2.1]octan-8-yl]methyl]phenyl]methyl]piperazin-1-yl]-10-oxo-decanoyl]amino]-3,3-dimethyl-butanoyl]-4-hydroxy-N-[[4-(4-methylthiazol-5-yl)phenyl]methyl]pyrrolidine-2-carboxamide] | 30 | 1110
15 | Cc1ncsc1-c1ccc(CNC(=O)[C@@H]2C[C@@H](O)CN2C(=O)[C@H](C(C)C)N2Cc3ccccc3C2=O)c(OCCCCCCCCCCC(=O)N2CCN(CCOc3cccc(N4C5CCC4CN(c4cc(-c6ccccc6O)nnc4N)C5)c3)CC2)c1 [Example 30, (2S,4R)-N-[[2-[11-[4-[2-[3-[3-[3-amino-6-(2-hydroxyphenyl)pyridazin-4-yl]-3,8-diazabicyclo[3.2.1]octan-8-yl]phenoxy]ethyl]piperazin-1-yl]-11-oxo-undecoxy]-4-(4-methylthiazol-5-yl)phenyl]methyl]-4-hydroxy-1-[(2S)-3-methyl-2-(1-oxoisoindolin-2-yl)butanoyl]pyrrolidine-2-carboxamide] | 65 | 1160
